Reference: patent EP0146443A1, “(-)-1-(2-Fluorophenyl)-2-tertiobutylamino-1-ethanol and therapeutical use” (LABORATOIRE L. LAFON Société anonyme dite:, priority 1983, dated 1985)

Key:
Assay type in all cases: in vivo
souris [1] = assay: Spontaneous motility (actimeter); conditions: recorded for 0,5 h, 0.5 h after dosing
Description: (§1) Dans ces essais les produits à tester en solution dans de l'eau distillée (pH5) ont été administrés, par voie intrapéritonéale, sous un volume de 20 ml/kg chez la souris mâle, et, sous un volume de 5 ml/kg chez le rat mâle.
Une demi-heure après avoir reçu les produits à tester, les souris (6 par dose, 12 témoins) sont placées en actimètre où leur motilité est enregistrée pendant 0,5 h.

souris [2] = assay: Interaction with oxotremorine; conditions: for effet hypothermisant de l'oxotrémorine / tremblements provoqués par l'oxotrémorine: 0.5 h before oxotremorine 0,5 mg/kg i.p.
Description: as §1
Chaque produit à tester est administré à des lots de 6 souris une demi-heure avant l'injection intrapéritonéale de 0,5 mg/kg d'oxotrémorine.

souris [3] = assay: Acute toxicity, intraperitoneal, mouse; conditions: I.P.
Description: as §1
Le CRL 40 996 est moins toxique que les CRL 40 995 et CRL 40 827. En effet si la DL-0 (dose maximale non mortelle) des trois substances est supérieure ou égale à 64 mg/kg (I.P.; souris), la DL-60 du CRL 40 996 est de l'ordre de 128 mg/kg (I.P.; souris)et la DL-100 des CRL 40 995 et CRL 40 827 est inférieure ou égale à 128 mg/kg (I.P.; souris).

souris [4] = assay: Behavioural despair (immobility in water); conditions: 0.5 h before immersion
Description: as §1
Une demi-heure après avoir reçu les produits à tester, des lots de 6 souris sont placés dans un bécher rempli d'eau sur une hauteur de 6 cm. On note la durée totale d'immobilité entre la 2ème et la 6ème minutes suivant l'immersion.

souris [5] = assay: Interaction with apomorphine; conditions: 0.5 h before apomorphine 16 mg/kg s.c.
Description: as §1
Des lots de 6 souris reçoivent chaque produit à tester une demi-heure avant l'injection sous-cutanée de 16 mg/kg d'apomorphine.

souris [6] = assay: Interaction with reserpine
Description: as §1
Quatre heures après l'injection intrapéritonéale de 2,5 mg/kg de réserpine, des lots de 6 souris reçoivent chaque produit à tester.

rat = assay: Global behaviour and reactivities, rat
Description: as §1
(§2) Des lots de 6 animaux sont observés avant, puis 0,25 h, 0,50 h, 1 h, 2 h, 3 h, et 24 h après administration des produits à étudier.

souris [7] = assay: Global behaviour and reactivities, mouse; conditions: for comportement et réactivités: doses of 2 and 0,5 mg/kg i.p.
Description: as §1, §2

homme = assay: Clinical use in depressive states; conditions: oral route, human
Description: La posologie préconisée consiste à administrer par jour 3 comprimés ou gélules renfermant chacun 3 à 4 mg de CRL 40 996.

[8] = peripheral cholinergic symptoms after oxotremorine 0,5 mg/kg i.p.
[9] = 32 mg/kg i.p., 4 h after reserpine 2,5 mg/kg i.p.
[10] = doses of 0,5, 2 and 8 mg/kg i.p., 4 h after reserpine 2,5 mg/kg i.p.
[11] = from the dose of 0,5 mg/kg i.p.
[12] = from the dose of 0.5 mg/kg i.p.

CC(C)(C)NCC(O)c1ccccc1F (racemic) [CRL 40 827, chlorhydratede ( + )-1-(2-fluorophényl)-2-tertiobutylamino-1-éthanol]
activité motrice spontanée (souris [1]; 8 mg/kg i.p.): ne modifie pas
activité motrice spontanée (souris [1]; 32 mg/kg i.p.): semble la diminuer modérément mais pas significativement
effet hypothermisant de l'oxotrémorine (souris [2]; i.p., dose not stated): an- tagonisé
tremblements provoqués par l'oxotrémorine (souris [2]; i.p., dose not stated): ne sont pas modifiés
signes de stimulation cholinergique (souris [2]; [8]): laissent inchangés
DL-0 (dose maximale non mortelle) (souris [3]): ≥ 64 mg/kg
DL-100 (souris [3]): ≤ 128 mg/kg

CC(C)(C)NCC(O)c1ccccc1F (single isomer, unassigned) [CRL 40 995, chlorhydratede (+)-1-(2-fluorophényl)-2-tertio-butylamino-1-éthanol]
durée de l'immobilité dite du "désespoir comportemental" (souris [4]; i.p., dose not stated): ne modifie pas
activité motrice spontanée (souris [1]; doses of 8 and 32 mg/kg i.p.): diminue modérément
action hypothermisante de l'apomorphine (souris [5]; doses of 8 and 32 mg/kg i.p.): s'oppose
comportement de verticalisation et stéréotypies (souris [5]; doses of 8 and 32 mg/kg i.p.): sans modifier
antagonisme de l'hypothermie réserpinique (animals showing it) (souris [6]; [9]): 5 souris sur 6
perte du réflexe de redressement (et l'hypothermie qui en résulte) (souris [6]; [9]): 1 souris sur 6
hypothermie réserpinique (souris [6]; [10]): s'oppose modérément
ptôsis (souris [6]; [10]): sans modifier
comportement et réactivités (rat; doses of 16, 4, 1 and 0,5 mg/kg i.p.): sans modifications sensibles par rapport aux animaux témoins
comportement et réactivités (souris [7]): sans modifications sensibles par rapport aux animaux témoins
respiration déprimée (duration) (souris [7]; doses of 32 and 8 mg/kg i.p.): 0,5 h
tremblements provoqués par l'oxotrémorine (souris [2]; 32 mg/kg i.p., worded as 'seems'): potentialiser
effet hypothermisant de l'oxotrémorine (souris [2]; i.p., dose not stated): n'est pas modifié
signes de stimulation cholinergique (souris [2]; [8]): laissent inchangés
DL-0 (dose maximale non mortelle) (souris [3]): ≥ 64 mg/kg
DL-100 (souris [3]): ≤ 128 mg/kg

CC(C)(C)NCC(O)c1ccccc1F (single isomer, unassigned) [CRL 40 996, chlorhydratede (-)-1-(2-fluorophényl)-2-tertio-butylamino-1-éthanol]
effet antidépresseur dans le traitement des états dépressifs (homme): bon agent antidépresseur
durée d'immobilité (souris [4]; doses of 8 and 32 mg/kg i.p.): diminue modérément
activité motrice spontanée (souris [1]; doses of 8 and 32 mg/kg i.p.): diminution très importante
comportement de verticalisation et stéréotypies (souris [5]; [11]): sans modifier
hypothermie induite par l'apomorphine (souris [5]; [11]): antagonisme net
latence de l'effet sur l'hypothermie réserpinique (souris [6]; [12]): ~1 heure
ptôsis (souris [6]; [12]): sans modifier
hypothermie réserpinique (souris [6]; from the dose of 0.5 mg/kg i.p., effect does not clearly increase with dose): combat modérément
sédation fugace (duration) (rat; 4 mg/kg i.p.): 0,25 h
dyspnée (duration) (rat; 16 mg/kg i.p.): 1 h
sédation (duration) (rat; 16 mg/kg i.p.): 0,5 h
comportement et réactivités (rat; doses of 1 and 0,25 mg/kg i.p.): sans modifications sensibles par rapport aux animaux témoins
diminution de la réactivité au toucher et du tonus musculaire (duration) (souris [7]; 8 mg/kg i.p.): 0,25 h
hypothermie (souris [7]; 8 mg/kg i.p.): -1,8 °C
hypothermie (duration) (souris [7]; 8 mg/kg i.p.): 0,25 h
sédation (duration) (souris [7]; 8 mg/kg i.p.): 0,5 h
diminution de la réactivité au toucher et du tonus musculaire (duration) (souris [7]; 32 mg/kg i.p.): 0,25 h
disparition du "pinna reflex" (duration) (souris [7]; 32 mg/kg i.p.): 0,5 h
hypothermie (souris [7]; 32 mg/kg i.p.): -2,0 °C
sédation (duration) (souris [7]; 32 mg/kg i.p.): 0,5 h
comportement et réactivités (souris [7]): sans modifications sensibles par rapport aux animaux témoins
effet hypothermisant de l'oxotrémorine (souris [2]; i.p., dose not stated): an- tagonisé
tremblements provoqués par l'oxotrémorine (souris [2]; i.p., dose not stated): ne sont pas modifiés
défécation (souris [2]; [8]): semble diminuer
salivation et lacrymation (souris [2]; [8]): sans modifier
DL-0 (dose maximale non mortelle) (souris [3]): ≥ 64 mg/kg
DL-60 (souris [3]): ~128 mg/kg
